The text below walks through data of patent US8759535B2, “Substituted fused imidazole derivatives, pharmaceutical compositions, and methods of use thereof” (High Point Pharmaceuticals, LLC, priority 2010, dated 2014).

Structures can show the parent of a compound that is named as a salt.

The subject of the first assay is HMOX1. As to the kind of experiment: HMOX1 Protein Assay (immunostaining of HO-1 in NHLF cells, GE InCell 1000). The assay is classed as cell-based. As to conditions: Homo sapiens, fold change above DMSO treated cells, 3 μM compound (asterisk), 16 h. The method in brief:
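NHLF cells seeded overnight in FGM-2, then exposed to compound or DMSO vehicle for 16 h, fixed, and immunostained for HO-1 with Hoechst nuclear counterstain; imaged on InCell 1000. Values are fold change over DMSO-treated cells, generally at 5 μM (0.8% DMSO), with asterisked entries at 3 μM.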
One may read the fold induction as the ratio of treated to control signal. A low value points to a weak induction. `C[C@@H](O)CN1CC[C@@H](NC(=O)c2ccc3c(c2)nc(Nc2nc4ccc(C(F)(F)F)cc4s2)n3C)C1` [Example 297, 1-Methyl-2-(6-trifluoromethyl-benzothiazol-2-ylamino)-1H-benzoimidazole-5-carboxylic acid [(R)-1-((R)-2-hydroxy-propyl)-pyrrolidin-3-yl]-amide] came in with a fold induction at 3 µM of 24.4. Still for that read-out and setting: then `Cn1c(Nc2nc3ccc(C(F)(F)F)cc3s2)nc2cc(C(=O)NCC(=O)N3CCOCC3)ccc21` [Example 422, 1-Methyl-2-(6-trifluoromethyl-benzothiazol-2-ylamino)-1H-benzoimidazole-5-carboxylic acid (2-morpholin-4-yl-2-oxo-ethyl)-amide], with 25; and `Cn1c(Nc2nc3ccc(OC(F)(F)F)cc3s2)nc2cc(C(=O)NCCCOCCO)ccc21` [Example 250, 1-Methyl-2-(6-trifluoromethoxy-benzothiazol-2-ylamino)-1H-benzoimidazole-5-carboxylic acid [3-(2-hydroxy-ethoxy)-propyl]-amide], with 25.1.

Staying with this assay, now noted: Homo sapiens, fold change above DMSO treated cells, 5 μM compound, 16 h.
`CCN(CC)C(=O)CNC(=O)c1ccc2c(c1)nc(Nc1nc3ccc(OC(F)(F)F)cc3s1)n2C` [Example 140, 1-Methyl-2-(6-trifluoromethoxy-benzothiazol-2-ylamino)-1H-benzimidazole-5-carboxylic acid diethylcarbamoylmethyl-amide]: the fold induction at 5 µM was 19.3. In turn, `CN(C(=O)CNC(=O)c1ccc2c(c1)nc(Nc1nc3ccc(Cl)cc3s1)n2C)C1CCOCC1` [Example 393, 2-(6-Chloro-benzothiazol-2-ylamino)-1-methyl-1H-benzoimidazole-5-carboxylic acid {[methyl-(tetrahydro-pyran-4-yl)-carbamoyl]-methyl}-amide] came in with a fold induction at 5 µM of 61.3. The molecule `CNC(=O)c1ccc2c(c1)nc(Nc1nc3ccc(OC(F)(F)F)cc3s1)n2C(C)C` [Example 160, 1-Isopropyl-2-(6-trifluoromethoxy-benzothiazol-2-ylamino)-1H-benzoimidazole-5-carboxylic acid methylamide] registered a fold induction at 5 µM of 22.9.

For the molecule `CSCCCNC(=O)c1ccc2c(c1)nc(Nc1nc3ccc(OC(F)(F)F)cc3s1)n2C` [Example 108, 1-Methyl-2-(6-trifluoromethoxy-benzothiazol-2-ylamino)-1H-benzoimidazole-5-carboxylic acid (3-methylsulfanyl-propyl)-amide], the fold induction at 5 µM stood at 18.3. Regarding `CCn1c(Nc2nc3ccc(OC(F)(F)F)cc3s2)nc2cc(C(=O)NCC(=O)N3CCN(C)CC3)ccc21` [Example 190, 1-Ethyl-2-(6-trifluoromethoxy-benzothiazol-2-ylamino)-1H-benzoimidazole-5-carboxylic acid [2-(4-methyl-piperazin-1-yl)-2-oxo-ethyl]-amide], the fold induction at 5 µM came out at 23.4. For the molecule `Cn1c(Nc2nc3ccc(OC(F)(F)F)cc3s2)nc2cc(C(=O)NCC3CNCCO3)ccc21` (stereo not drawn) [Example 56, 1-Methyl-2-(6-trifluoromethoxy-benzothiazol-2-ylamino)-1H-benzoimidazole-5-carboxylic acid (morpholin-2-ylmethyl)-amide hydrochloride], the fold induction at 5 µM was found to be 16.1. Molecule `CCn1c(Nc2nc3ccc(C(F)(F)F)cc3s2)nc2cc(C(=O)NC)ccc21` [Example 180, 1-Ethyl-2-(6-trifluoromethyl-benzothiazol-2-ylamino)-1H-benzoimidazole-5-carboxylic acid methylamide] gave a fold induction at 5 µM of 12.4. In turn, `CCOCCNC(=O)c1ccc2c(c1)nc(Nc1nc3ccc(OC(F)(F)F)cc3s1)n2CC` [Example 157, 1-Ethyl-2-(6-trifluoromethoxy-benzothiazol-2-ylamino)-1H-benzoimidazole-5-carboxylic acid (2-ethoxy-ethyl)-amide] displayed a fold induction at 5 µM of 22.1. In turn, `CN(C)C(=O)CNC(=O)c1ccc2c(c1)nc(Nc1nc3ccc(Cl)cc3s1)n2C` [Example 133, 2-(6-Chloro-benzothiazol-2-ylamino)-1-methyl-1H-benzimidazole-5-carboxylic acid dimethylcarbamoylmethyl-amide] had a fold induction at 5 µM of 45.9.

The molecule `CN(CCO)C(=O)CNC(=O)c1ccc2c(c1)nc(Nc1nc3ccc(OC(F)(F)F)cc3s1)n2C` [Example 390, 1-Methyl-2-(6-trifluoromethoxy-benzothiazol-2-ylamino)-1H-benzoimidazole-5-carboxylic acid {[(2-hydroxy-ethyl)-methyl-carbamoyl]-methyl}-amide] came in with a fold induction at 5 µM of 46.4. `Cn1c(Nc2nc3ccc(OC(F)(F)F)cc3s2)nc2cc(C(=O)NCCN3CCOCC3)cnc21` [Example 77, 3-Methyl-2-(6-trifluoromethoxy-benzothiazol-2-ylamino)-3H-imidazo[4,5-b]pyridine-6-carboxylic acid (2-morpholin-4-yl-ethyl)-amide] displayed a fold induction at 5 µM of 31.4. The same measure, in the same setting: under `CNC(=O)c1ccc2c(c1)nc(Nc1nc3ccc(F)cc3s1)n2C` [Example 124, 2-(6-Fluoro-benzothiazol-2-ylamino)-1-methyl-1H-benzimidazole-5-carboxylic acid methylamide] stands 22.9; under `CN(C)C(=O)CCNC(=O)c1ccc2c(c1)nc(Nc1nc3ccc(OC(F)(F)F)cc3s1)n2C` [Example 135, 1-Methyl-2-(6-trifluoromethoxy-benzothiazol-2-ylamino)-1H-benzimidazole-5-carboxylic acid (2-dimethylcarbamoyl-ethyl)-amide], 49.6; under `Cn1c(Nc2nc3ccc(OC(F)(F)F)cc3s2)nc2cc(C(=O)NC3CCN(S(C)(=O)=O)CC3)ccc21` [Example 90, 1-Methyl-2-(6-trifluoromethoxy-benzothiazol-2-ylamino)-1H-benzoimidazole-5-carboxylic acid (1-methanesulfonyl-piperidin-4-yl)-amide], 8.1. `C[C@H](O)C(=O)NCCNC(=O)c1ccc2c(c1)nc(Nc1nc3ccc(OC(F)(F)F)cc3s1)n2C` [Example 326, 1-Methyl-2-(6-trifluoromethoxy-benzothiazol-2-ylamino)-1H-benzoimidazole-5-carboxylic acid [2-((S)-2-hydroxy-propionylamino)-ethyl]-amide] registered a fold induction at 5 µM of 34.3. Regarding `Cn1c(Nc2nc3cc(F)c(F)cc3s2)nc2cc(C(=O)O)ccc21` [Example 34, 2-(5,6-Difluoro-benzothiazol-2-ylamino)-1-methyl-1H-benzoimidazole-5-carboxylic acid], the fold induction at 5 µM was 15.4. Consider `CN(C)CCOCCNC(=O)c1ccc2c(c1)nc(Nc1nc3ccc(OC(F)(F)F)cc3s1)n2C` [Example 273, 1-Methyl-2-(6-trifluoromethoxy-benzothiazol-2-ylamino)-1H-benzoimidazole-5-carboxylic acid [2-(2-dimethylamino-ethoxy)-ethyl]-amide], for which the fold induction at 5 µM was determined as 25.3. Same read-out and setting: then `COc1ccc(CNC(=O)c2ccc3c(c2)nc(Nc2nc4ccc(OC(F)(F)F)cc4s2)n3C)cc1O` [Example 231, 1-Methyl-2-(6-trifluoromethoxy-benzothiazol-2-ylamino)-1H-benzoimidazole-5-carboxylic acid 3-hydroxy-4-methoxy-benzylamide], with 30.2.
